Results as given in ChEMBL document CHEMBL4680210, “Discovery of 1,6-naphthyridinone-based MET kinase inhibitor bearing quinoline moiety as promising antitumor drug candidate” (Eur J Med Chem, 2020).

How the values were obtained:
[1] = target: Hepatocyte growth factor receptor (Homo sapiens, UniProt P08581)
[2] = system: MKN-45; experiment: cells; conditions: Homo sapiens, MKN-45, 72 h
[3] = Half life in rat liver microsomes; assay type: ADME, Microsome
[4] = system: HT-29; experiment: cells; conditions: Homo sapiens, HT-29, 72 h
[5] = cells; conditions: Homo sapiens, U-87 MG, 72 h
[6] = system: NCI-H460; experiment: cells; conditions: Homo sapiens, NCI-H460, 72 h
[7] = Clearance in Sprague-Dawley rat at 1 mg/kg, iv up to 24 hrs by LC-MS/MS analysis; assay type: ADME, organism-based; conditions: in vivo
[8] = system: U87; experiment: Antitumour activity against human U87MG cells xenografted in po dosed athymic nude mouse assessed as tumour growth inhibition for 21 days; assay type: functional, organism-based; conditions: dose 3-37.5 mg/kg, time 21.0 day
[9] = Antitumour activity against human U87MG cells xenografted in athymic nude mouse assessed as tumour growth inhibition at 6 mg/kg, po for 21 days relative to control; assay type: functional, U87; conditions: U-87 MG, 504 h, time 21 day, read-out: TGI
[10] = target: Vascular endothelial growth factor receptor 3 (Homo sapiens, UniProt P35916); experiment: Inhibition of FLT4 (unknown origin) using biotin as substrate preincubated for 5 mins followed by substrate addition and measured after 30 to 60 mins by HTRF assay
Chain of Vascular endothelial growth factor receptor 3 (P35916 whole entry): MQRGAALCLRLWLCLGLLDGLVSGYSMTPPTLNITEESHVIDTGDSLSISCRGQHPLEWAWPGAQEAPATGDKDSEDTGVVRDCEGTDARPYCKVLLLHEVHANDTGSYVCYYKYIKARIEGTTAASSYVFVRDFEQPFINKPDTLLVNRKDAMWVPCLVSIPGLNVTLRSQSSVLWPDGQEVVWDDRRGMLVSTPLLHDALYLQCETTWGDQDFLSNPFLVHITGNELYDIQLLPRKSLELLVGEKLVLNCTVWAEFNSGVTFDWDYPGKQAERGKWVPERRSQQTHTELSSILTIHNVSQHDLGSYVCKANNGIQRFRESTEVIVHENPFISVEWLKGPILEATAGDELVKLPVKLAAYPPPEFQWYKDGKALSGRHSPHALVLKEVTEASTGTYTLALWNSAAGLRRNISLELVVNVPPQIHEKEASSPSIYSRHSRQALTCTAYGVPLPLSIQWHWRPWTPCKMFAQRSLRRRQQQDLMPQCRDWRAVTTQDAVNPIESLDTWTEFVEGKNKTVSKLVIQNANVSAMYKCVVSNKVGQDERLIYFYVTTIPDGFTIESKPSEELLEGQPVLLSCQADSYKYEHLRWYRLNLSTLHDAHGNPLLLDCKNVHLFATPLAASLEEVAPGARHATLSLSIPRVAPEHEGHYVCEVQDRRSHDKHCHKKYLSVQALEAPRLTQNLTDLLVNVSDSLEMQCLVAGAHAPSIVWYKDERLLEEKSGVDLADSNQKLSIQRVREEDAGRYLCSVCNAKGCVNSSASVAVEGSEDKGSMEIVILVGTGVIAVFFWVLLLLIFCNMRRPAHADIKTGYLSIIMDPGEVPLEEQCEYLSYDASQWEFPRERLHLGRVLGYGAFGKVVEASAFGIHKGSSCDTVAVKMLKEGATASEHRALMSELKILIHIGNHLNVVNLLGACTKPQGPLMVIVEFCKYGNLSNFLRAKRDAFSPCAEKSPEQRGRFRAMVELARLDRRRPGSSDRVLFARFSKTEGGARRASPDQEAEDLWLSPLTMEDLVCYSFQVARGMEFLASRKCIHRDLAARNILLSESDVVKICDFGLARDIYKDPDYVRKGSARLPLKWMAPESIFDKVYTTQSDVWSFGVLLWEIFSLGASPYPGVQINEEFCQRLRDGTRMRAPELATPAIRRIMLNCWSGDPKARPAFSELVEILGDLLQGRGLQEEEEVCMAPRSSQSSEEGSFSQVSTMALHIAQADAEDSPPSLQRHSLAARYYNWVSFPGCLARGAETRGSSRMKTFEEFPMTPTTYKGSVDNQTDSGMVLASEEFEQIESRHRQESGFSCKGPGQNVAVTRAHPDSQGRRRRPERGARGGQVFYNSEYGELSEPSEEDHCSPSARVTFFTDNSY

[11] = Apparent volume of distribution in Sprague-Dawley rat at 5 mg/kg, po up to 24 hrs by LC-MS/MS analysis; assay type: ADME, organism-based; conditions: in vivo
[12] = Half life in Sprague-Dawley rat at 1 mg/kg, iv up to 24 hrs by LC-MS/MS analysis; assay type: ADME, organism-based; conditions: in vivo
[13] = target: T1, Tyrosine-protein kinase receptor UFO (Homo sapiens, UniProt P30530); experiment: Inhibition of AXL (unknown origin) using biotin as substrate preincubated for 5 mins followed by substrate addition and measured after 30 to 60 mins by HTRF assay
T1 sequence (P30530 whole entry): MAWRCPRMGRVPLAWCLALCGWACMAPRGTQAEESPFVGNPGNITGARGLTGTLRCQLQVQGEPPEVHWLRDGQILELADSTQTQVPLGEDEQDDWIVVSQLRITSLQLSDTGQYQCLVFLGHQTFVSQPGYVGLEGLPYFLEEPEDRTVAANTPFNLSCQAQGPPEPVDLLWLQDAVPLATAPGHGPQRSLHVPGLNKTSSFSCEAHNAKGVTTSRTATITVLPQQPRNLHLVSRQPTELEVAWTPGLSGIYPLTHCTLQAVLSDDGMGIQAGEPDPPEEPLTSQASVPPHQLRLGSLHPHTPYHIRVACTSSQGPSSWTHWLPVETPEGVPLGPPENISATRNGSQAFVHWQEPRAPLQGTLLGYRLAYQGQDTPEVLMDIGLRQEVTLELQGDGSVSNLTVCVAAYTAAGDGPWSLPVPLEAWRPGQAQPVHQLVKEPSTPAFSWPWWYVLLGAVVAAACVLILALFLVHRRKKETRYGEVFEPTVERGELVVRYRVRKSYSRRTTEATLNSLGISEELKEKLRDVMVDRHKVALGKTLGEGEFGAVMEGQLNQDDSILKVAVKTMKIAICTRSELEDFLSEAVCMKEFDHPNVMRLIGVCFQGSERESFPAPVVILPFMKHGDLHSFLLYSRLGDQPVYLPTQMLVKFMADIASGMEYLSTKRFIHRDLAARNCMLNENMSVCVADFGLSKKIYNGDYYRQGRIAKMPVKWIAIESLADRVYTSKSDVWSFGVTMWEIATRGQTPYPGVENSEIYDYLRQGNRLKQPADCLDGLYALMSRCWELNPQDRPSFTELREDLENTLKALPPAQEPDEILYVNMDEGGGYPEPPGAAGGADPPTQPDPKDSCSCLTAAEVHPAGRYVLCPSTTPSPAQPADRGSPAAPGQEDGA

[14] = Apparent volume of distribution in Sprague-Dawley rat at 1 mg/kg, iv up to 24 hrs by LC-MS/MS analysis; assay type: ADME, organism-based; conditions: in vivo, read-out: Vz
[15] = target: Angiopoietin-1 receptor (Homo sapiens, UniProt Q02763); experiment: Inhibition of TEK (unknown origin) using biotin as substrate preincubated for 5 mins followed by substrate addition and measured after 30 to 60 mins by HTRF assay
Chain of Angiopoietin-1 receptor (Q02763 whole entry): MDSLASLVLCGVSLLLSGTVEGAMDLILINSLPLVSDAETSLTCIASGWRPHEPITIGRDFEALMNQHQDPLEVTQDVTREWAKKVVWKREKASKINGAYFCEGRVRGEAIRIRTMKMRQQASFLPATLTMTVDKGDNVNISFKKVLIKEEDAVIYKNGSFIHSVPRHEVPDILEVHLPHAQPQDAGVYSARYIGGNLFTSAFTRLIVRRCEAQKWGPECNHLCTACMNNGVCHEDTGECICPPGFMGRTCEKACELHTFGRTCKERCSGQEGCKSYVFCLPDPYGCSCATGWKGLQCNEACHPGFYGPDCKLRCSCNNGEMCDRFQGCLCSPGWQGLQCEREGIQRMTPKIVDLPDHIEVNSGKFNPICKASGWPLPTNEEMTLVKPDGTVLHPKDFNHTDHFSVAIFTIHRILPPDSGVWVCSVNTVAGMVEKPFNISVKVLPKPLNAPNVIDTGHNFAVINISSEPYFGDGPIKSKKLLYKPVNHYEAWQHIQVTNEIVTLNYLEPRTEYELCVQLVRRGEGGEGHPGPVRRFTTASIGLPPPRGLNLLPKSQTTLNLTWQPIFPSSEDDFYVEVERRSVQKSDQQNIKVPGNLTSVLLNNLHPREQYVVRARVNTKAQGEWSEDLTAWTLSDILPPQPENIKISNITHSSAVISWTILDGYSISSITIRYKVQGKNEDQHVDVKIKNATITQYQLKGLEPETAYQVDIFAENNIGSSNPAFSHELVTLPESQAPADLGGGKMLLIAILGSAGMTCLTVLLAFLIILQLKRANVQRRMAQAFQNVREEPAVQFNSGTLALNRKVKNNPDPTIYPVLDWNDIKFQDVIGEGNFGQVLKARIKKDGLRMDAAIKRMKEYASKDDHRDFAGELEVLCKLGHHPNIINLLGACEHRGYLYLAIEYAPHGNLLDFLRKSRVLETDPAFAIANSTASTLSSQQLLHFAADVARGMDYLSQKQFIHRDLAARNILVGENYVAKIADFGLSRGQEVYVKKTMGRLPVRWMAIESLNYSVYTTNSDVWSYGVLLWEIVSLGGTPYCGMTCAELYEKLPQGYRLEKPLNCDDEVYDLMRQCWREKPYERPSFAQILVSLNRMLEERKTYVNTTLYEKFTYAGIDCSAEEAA

[16] = Cmax in Sprague-Dawley rat at 1 mg/kg, iv up to 24 hrs by LC-MS/MS analysis; assay type: ADME, organism-based; design: route intravenous, dose 1 mg/kg, time <=24; conditions: in vivo
[17] = Cmax in Sprague-Dawley rat at 5 mg/kg, po up to 24 hrs by LC-MS/MS analysis; assay type: ADME, organism-based; design: route oral, dose 5 mg/kg, time <=24; conditions: in vivo
[18] = AUC (0 to infinity) in Sprague-Dawley rat at 5 mg/kg, po up to 24 hrs by LC-MS/MS analysis; assay type: ADME, organism-based; design: route oral, dose 5 mg/kg, time <=24; conditions: in vivo
[19] = AUC (0 to infinity) in Sprague-Dawley rat at 1 mg/kg, iv up to 24 hrs by LC-MS/MS analysis; assay type: ADME, organism-based; design: route intravenous, dose 1 mg/kg, time <=24; conditions: in vivo
[20] = Antitumour activity against human U87MG cells xenografted in athymic nude mouse assessed as tumour growth inhibition at 37.5 mg/kg, po for 21 days relative to control; assay type: functional, U87; conditions: U-87 MG, 504 h, time 21 day, read-out: TGI
[21] = Oral bioavailability in Sprague-Dawley rat at 5 mg/kg up to 24 hrs by LC-MS/MS analysis; assay type: ADME, organism-based; conditions: in vivo
[22] = animal or person; conditions: Homo sapiens, U-87 MG, po, 504 h, read-out: TGI
[23] = Antitumour activity against human U87MG cells xenografted in athymic nude mouse assessed as tumour growth inhibition at 3 mg/kg, po for 21 days relative to control; assay type: functional, U87; conditions: U-87 MG, 504 h, time 21 day, read-out: TGI
[24] = Clearance in Sprague-Dawley rat at 5 mg/kg, po up to 24 hrs by LC-MS/MS analysis; assay type: ADME, organism-based; conditions: in vivo
[25] = Half life in Sprague-Dawley rat at 5 mg/kg, po up to 24 hrs by LC-MS/MS analysis; assay type: ADME, organism-based; conditions: in vivo
[26] = Tmax in Sprague-Dawley rat at 5 mg/kg, po up to 24 hrs by LC-MS/MS analysis; assay type: ADME, organism-based; conditions: in vivo

Chain of Hepatocyte growth factor receptor (P08581 whole entry): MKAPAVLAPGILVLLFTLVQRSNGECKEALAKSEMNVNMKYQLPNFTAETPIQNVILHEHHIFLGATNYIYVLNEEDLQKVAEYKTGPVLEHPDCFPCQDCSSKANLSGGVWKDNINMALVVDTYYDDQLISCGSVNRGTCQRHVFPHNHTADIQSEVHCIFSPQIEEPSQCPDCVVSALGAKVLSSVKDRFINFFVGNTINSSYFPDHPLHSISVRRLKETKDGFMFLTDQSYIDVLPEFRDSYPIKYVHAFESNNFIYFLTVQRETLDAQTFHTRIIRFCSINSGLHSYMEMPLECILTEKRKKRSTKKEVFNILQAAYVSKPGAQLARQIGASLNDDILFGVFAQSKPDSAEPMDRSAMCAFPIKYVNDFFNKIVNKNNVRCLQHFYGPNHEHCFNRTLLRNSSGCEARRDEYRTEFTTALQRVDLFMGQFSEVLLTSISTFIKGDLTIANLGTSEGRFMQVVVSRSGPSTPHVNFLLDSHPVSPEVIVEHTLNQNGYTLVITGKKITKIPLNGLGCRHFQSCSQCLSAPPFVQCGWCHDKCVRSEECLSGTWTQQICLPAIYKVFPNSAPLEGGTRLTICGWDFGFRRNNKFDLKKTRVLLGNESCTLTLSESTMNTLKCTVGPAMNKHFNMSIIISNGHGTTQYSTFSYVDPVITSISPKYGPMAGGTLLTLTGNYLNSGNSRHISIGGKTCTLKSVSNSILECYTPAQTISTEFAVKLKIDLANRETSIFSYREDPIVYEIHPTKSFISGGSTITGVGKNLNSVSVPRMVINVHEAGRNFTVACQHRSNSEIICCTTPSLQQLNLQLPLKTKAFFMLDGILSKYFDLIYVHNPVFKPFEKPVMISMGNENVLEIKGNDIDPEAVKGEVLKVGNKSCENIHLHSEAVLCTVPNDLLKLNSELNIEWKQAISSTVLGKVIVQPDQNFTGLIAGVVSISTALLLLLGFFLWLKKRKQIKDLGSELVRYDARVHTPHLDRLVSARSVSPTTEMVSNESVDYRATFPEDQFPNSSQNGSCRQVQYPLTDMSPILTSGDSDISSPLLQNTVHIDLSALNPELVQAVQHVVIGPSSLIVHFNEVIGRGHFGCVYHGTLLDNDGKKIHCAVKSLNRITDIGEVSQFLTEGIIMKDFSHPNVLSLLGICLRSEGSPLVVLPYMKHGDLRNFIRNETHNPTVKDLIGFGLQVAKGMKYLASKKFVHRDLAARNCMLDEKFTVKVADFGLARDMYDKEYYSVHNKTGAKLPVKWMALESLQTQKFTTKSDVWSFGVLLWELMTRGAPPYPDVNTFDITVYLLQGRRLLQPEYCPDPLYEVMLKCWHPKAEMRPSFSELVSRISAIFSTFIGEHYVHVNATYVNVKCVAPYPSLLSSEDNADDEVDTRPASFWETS

| Structure (SMILES) | IC50 [1] [nM] | IC50 [2] [µM] | half-life [3] [min] | IC50 [4] [µM] | IC50 [5] [µM] | IC50 [6] [µM] | other results |
| --- | --- | --- | --- | --- | --- | --- | --- |
| COc1cc2c(Oc3ccc(Nc4nccc5[nH]cc(-c6ccc(F)cc6)c(=O)c45)cc3F)ccnc2cc1OCC(C)(C)OC | 12.1 | – | – | – | – | – | – |
| COc1cc2nccc(Oc3ccc(Nc4nccc5[nH]cc(-c6ccc(F)cc6)c(=O)c45)cc3F)c2cc1OC | 76.6 | – | – | – | – | – | – |
| COC(C)(C)COc1ccc2c(Oc3ccc(Nc4nccc5[nH]cc(-c6ccc(F)cc6)c(=O)c45)cc3F)ccnc2c1 | 13.1 | 5.5 | 86.8 | 4.8 | 16.4 | 4.4 | – |
| CC(C)(O)COc1ccc2c(Oc3ccc(Nc4nccc5[nH]cc(-c6ccc(F)cc6)c(=O)c45)cc3F)ccnc2c1 | – | 2.7 | 248 | 3.4 | 4.7 | 3.2 | – |
| COc1cc2c(Oc3ccc(Nc4nccc5[nH]cc(-c6ccc(F)cc6)c(=O)c45)cc3F)ccnc2cc1OCC(C)(C)O | – | 1.4 | 310 | 2.1 | 2.6 | 1.7 | – |
| COc1cc2c(Oc3ccc(Nc4nccc5[nH]cc(-c6ccc(F)cc6)c(=O)c45)cc3F)ccnc2cc1OCC(C)C | 19.7 | – | – | – | – | – | – |
| COCCOc1cc2nccc(Oc3ccc(Nc4nccc5[nH]cc(-c6ccc(F)cc6)c(=O)c45)cc3F)c2cc1OC | 83 | 3.1 | 63.4 | 4.6 | 5.2 | 3 | – |
| O=c1c(-c2ccc(F)cc2)c[nH]c2ccnc(Nc3ccc(Oc4ccnc5cc(OCCN6CCOCC6)ccc45)c(F)c3)c12 | – | – | 6.6 | – | – | – | – |
| O=c1c(-c2ccc(F)cc2)c[nH]c2ccnc(Nc3ccc(Oc4ccnc5cc(O)ccc45)c(F)c3)c12 | 5 | 5 | 53.6 | 5.9 | 7.2 | 43 | – |
| COCCOc1ccc2c(Oc3ccc(Nc4nccc5[nH]cc(-c6ccc(F)cc6)c(=O)c45)cc3F)ccnc2c1 | 8.4 | 5.6 | 104 | 6.5 | 5.1 | 4.3 | – |
| COCCOc1cc2nccc(Oc3ccc(Nc4nccc5[nH]cc(-c6ccccc6)c(=O)c45)cc3F)c2cc1OC | 7.7 | – | – | – | – | – | – |

Second part, led by results:

| IC50 [1] [nM] | IC50 [2] [µM] | half-life [3] [min] | IC50 [4] [µM] | IC50 [5] [µM] | IC50 [6] [µM] | Structure (SMILES) | other results |
| --- | --- | --- | --- | --- | --- | --- | --- |
| 133 | 3.1 | 85.4 | 3.9 | 8.5 | 3.4 | CC(O)COc1ccc2c(Oc3ccc(Nc4nccc5[nH]cc(-c6ccc(F)cc6)c(=O)c45)cc3F)ccnc2c1 (stereo not given) | – |
| 40.3 | – | – | – | – | – | Cc1[nH]c2ccnc(Nc3ccc(Oc4ccnc5cc(OCC(C)(C)O)ccc45)c(F)c3)c2c(=O)c1-c1ccccc1 | – |
| – | 2.9 | 322 | 4.2 | 4.5 | 3.6 | CC(C)(O)COc1ccc2c(Oc3ccc(Nc4nccc5[nH]cc(-c6ccccc6)c(=O)c45)cc3F)ccnc2c1 | clearance [7]: 3.33 mL/min/kg; TGI [8]: Dose-dependent effect; inhibition in vivo at 6 mg/kg [9]: 57%; IC50 [10]: 116 nM; Vz [11]: 3.3 L/kg; half-life [12]: 240 min; IC50 [13]: 32.3 nM; Vd [14]: 0.9 L/kg; IC50 [15]: 19 nM; Cmax [16]: 500 ng/mL; Cmax [17]: 1500 ng/mL; AUC(0-inf) [18]: 10700 ng·h/mL; AUC(0-inf) [19]: 6600 ng·h/mL; inhibition in vivo at 37.5 mg/kg [20]: 172%; bioavailability [21]: 32%; inhibition in vivo at 12.5 mg/kg [22]: 131%; inhibition in vivo at 3 mg/kg [23]: 47%; CL/F [24]: 8.33 mL/min/kg; half-life [25]: 294 min; Tmax [26]: 4 h |
| – | 4.7 | 90.6 | 5.5 | 4.9 | 3.5 | O=c1c(-c2ccc(F)cc2)c[nH]c2ccnc(Nc3ccc(Oc4ccnc5cc(OCCO)ccc45)c(F)c3)c12 | – |
| 27.8 | – | 90.1 | – | – | – | CC(C)COc1ccc2c(Oc3ccc(Nc4nccc5[nH]cc(-c6ccc(F)cc6)c(=O)c45)cc3F)ccnc2c1 | – |
| – | – | 17.8 | – | – | – | O=c1c(-c2ccccc2)c[nH]c2ccnc(Nc3ccc(Oc4ccnc5cc(OCCCN6CCOCC6)ccc45)c(F)c3)c12 | – |
| 5.7 | 1.6 | 88.9 | 2.9 | 4.1 | 2 | COc1cc2c(Oc3ccc(Nc4nccc5[nH]cc(-c6ccc(F)cc6)c(=O)c45)cc3F)ccnc2cc1OCCO | – |
